The record followed here is PMC7725824, “Fused isoselenazolium salts suppress breast cancer cell growth by dramatic increase in pyruvate-dependent mitochondrial ROS production” (Scientific Reports, 2020).

The nature of data set [1]: Cytotoxicity assay (MTT), A7r5. Format: cell-based, rat. The note with it: rat, A7r5 cells (vascular smooth muscle cells), normal cell line, mean ± S.D., 3 experiments. The procedure: (§1) MCF-7 (human breast adenocarcinoma, estrogen-positive) and 4T1 (mouse carcinoma), as breast cancer cell lines, and H9C2 (rat cardiomyoblasts), NIH 3T3 (mouse fibroblasts), HEKa (primary human epidermal keratinocytes), MDCK (Madin-Darby Canine Kidney) cells, and A7r5 (rat vascular smooth muscle cells), as normal cell lines, were obtained from the American Type Culture Collection [ATCC] collection for use in the current study. All cell lines were cultured in Dulbecco's modified Eagle's medium (DMEM) containing 10% fetal bovine serum (FBS) and 4 mM L-glutamine at 37 °C and 5% CO2.
(§2) Cell viability was assessed by the addition of 3-(4,5-dimethylthiazol-2-yl)-2,5-diphenyltetrazolinium bromide (MTT). Briefly, cells were seeded (2–6 × 10^4 cells/ml) in 96-well plates and allowed to attach for 24 h. Solutions of test compounds were prepared and serially diluted to obtain the appropriate concentrations. The cells were treated with the test compounds at different concentrations (0.032–100 µM) and incubated for 48 h at 37 °C and 5% CO2. Then, the culture medium was removed, and medium containing 0.2 mg/ml MTT was added. After 3 h (37 °C, 5% CO2), the MTT-containing medium was removed, and 200 μl of dimethyl sulfoxide (DMSO) was immediately added to each sample. The absorbance was assessed at 540 nm using a Tecan multiplate reader Infinite 1000 (Austria). The half-maximal inhibitory concentration (IC50) of each compound was calculated using Graph Pad Prism 3.0.

A short description of data set [2]: Cytotoxicity assay (MTT), H9C2. It is filed as cell-based, rat. Particulars: rat, H9C2 cells (cardiomyoblasts); normal cell line; MTT, 48 h; mean ± S.D., 3 experiments. As to the method:
as §1, §2

The subject of another data set is MCF-7. The data set is described as follows: Cytotoxicity assay (MTT), MCF-7. Format: cell-based, human. Particulars: Homo sapiens, MCF7; breast cancer cell line; MTT, 48 h; mean ± S.D., 3 experiments; read-out: Cytotoxicity, IC50, MCF-7. The procedure: as §1, §2
Data set [3] can be described thus: Cytotoxicity assay (MTT), HEKa. Format: cell-based, human. Particulars: human, HEKa cells (primary epidermal keratinocytes), normal cell line, mean ± S.D., 3 experiments. The procedure:
as §1, §2

Data set [4] has as its system MCF-7 cells. The data set is described as follows: Fluorometric measurement of NMN level. It is filed as cell-based, human. Particulars: 2 μM, 10 min, vs control. As to the method: For fluorometric measurements of NMN, a previously described method was used, with minor modifications. […] The cells were washed with PBS and then lysed by adding 200 μl of 1 M HClO4 to each well and incubating at 4 °C for 20 min. The cells were harvested by scraping and transferred to a tube. The extracts were neutralized with 100 μl of 2 M KOH for 5 min at room temperature and 50 μl of 0.1 M bicine (pH 7.4) was added. The samples were centrifuged at 14 000 × g for 10 min at 4 °C, and the supernatant was collected for further analysis. The protein concentration in each sample was determined using a Bio-Rad protein assay kit. […] The reaction was incubated for 2 min at 4 °C, after which 45 μl of 88% formic acid was added, and the samples were incubated for another 10 min at 37 °C on a shaker. The fluorescence was measured using a Tecan multiplate reader Infinite 1000 (Austria) with excitation at 382 nm and emission at […].

The target in the next data set is T1, NAMPT (Homo sapiens, UniProt P43490).
T1 construct: endogenous in cells; host or cells: MCF-7
The data set is described as follows: NAMPT activity assay in lysates of treated cells. Particulars: MCF-7 cells, 2 µM, 4 h. It is filed as cell-based. The procedure: MCF-7 cells (5 × 10^6 cells per well) were grown in a 6-well plate and then incubated with the test compounds (2 µM) for 4 h. The cells were harvested by scraping, washed with PBS and lysed with 50 mM Tris–HCl (pH 7.5), 150 mM NaCl, 1 mM DTT, 1 mM PMSF, 0.002 mg/ml leupeptin and pepstatin (2 × 10^6 cells in 100 µl buffer solution). After three freeze–thaw cycles at -80 °C, the cell extract was centrifuged at 15 000 × g for 30 min at 4 °C. The supernatant was collected, and the protein concentrations were determined using a Bio-Rad protein assay kit. The NAMPT enzyme reaction was performed as described previously. The enzymatic reaction mixture contained 50 mM Tris–HCl buffer (pH 7.5), 12 mM MgCl2, 2 mM DTT, 0.02% BSA, 2.5 mM ATP, 0.8 mM PRPP, and 50 μM nicotinamide. […] The concentrations of the NAMPT reaction product, nicotinamide mononucleotide (NMN), in the samples were determined using a described method. […] The fluorescence was measured using a Tecan multiplate reader Infinite 1000 (Austria) with excitation at 382 nm and emission at 445 nm. The NMN concentrations in the reaction mixtures were determined by comparison with NMN standards in the range of 0.16–20 μM. The NAMPT activity in the cell lysates is expressed as the concentration of NMN in μmol per mg protein per hour based on standard NMN readings.

The subject of the next data set is permeabilized 4T1 cells. The experiment in a line: High-resolution fluorespirometry (respiration and H2O2 flux). Format: cell-based, mouse. The procedure:
High-resolution fluorespirometry was performed using an Oxygraph-2 k system (OROBOROS INSTRUMENTS, Austria). All experiments were performed at 37 °C in MiR05 medium (110 mM sucrose, 60 mM K-lactobionate, 0.5 mM EGTA, 3 mM MgCl2, 20 mM taurine, 10 mM KH2PO4, 20 mM HEPES, pH 7.1 at 30 °C, and 0.1% BSA essentially fatty acid free). The medium was reoxygenated when the oxygen concentration dropped to 80 µM. H2O2 flux was simultaneously measured with respirometry in the O2k-Fluorometer using the H2O2-sensitive probe Ampliflu Red (AmR) as described. The H2O2/O flux ratio [%] was calculated as the H2O2 flux/(0.5 O2 flux).
In permeabilized 4T1 cells, pyruvate + malate (5 and 2 mM) or glutamate + malate (10 and 2 mM) were used to determine complex I (CI)-linked LEAK (L) respiration. ADP was added to a concentration of 5 mM to determine the oxidative phosphorylation-dependent respiration (OXPHOS state). Succinate (10 mM, complex II (CII) substrate) was then added to reconstitute convergent CI&II-linked respiration. Rotenone (0.5 µM, an inhibitor of complex I) and antimycin A (2.5 µM, an inhibitor of complex III) were added to determine the CII-linked OXPHOS capacity and residual oxygen consumption (ROX), respectively. Compound 6 was added to permeabilized cells after the addition of the respective substrates in the OXPHOS state (titration experiment) or in the LEAK state. In addition, compounds 3, 6 and 7 were tested at 1 µM in the OXPHOS coupling protocol in the LEAK state. The OXPHOS coupling efficiency was calculated as: 1-Resp.rateLEAKstate/Resp.rateOXPHOSstate
The substrate-dependent flux control factor was calculated as: 1-Resp.ratebeforeadditionofrespectivesubstrate/Resp.rateafteradditionofrespectivesubstrate

Data set [5] is described as follows: Cytotoxicity assay (MTT), 3T3. Format: cell-based, mouse. The note with it: mouse, NIH 3T3 cells (fibroblasts), normal cell line, mean ± S.D., 3 experiments. The procedure: as §1, §2
The test system of data set [6] is MCF-7 cells. The data set is described as follows: NAD+/NADH assay kit measurement. Format: cell-based, human. Particulars: 2 μM, 10 min, vs control. The procedure: The NAD^+/NADH ratio in the MCF-7 cells exposed to the test compounds (2 μM) for 10 min was measured using an NAD^+/NADH assay kit (Abcam, ab65348) according to the manufacturer's instructions.
Data set [7] is described as follows: Cytotoxicity assay (MTT), MDCK. It is filed as cell-based, Canine. Particulars: dog, MDCK cells, normal cell line, mean ± S.D., 3 experiments. The procedure: as §1, §2
The next data set has as its system 4T1. The experiment in a line: Cytotoxicity assay (MTT), 4T1. Format: cell-based, mouse. As to the method: as §1, §2
The mark [8] stands for this setting: 1 µM, pyruvate-dependent OXPHOS state.
The mark [9] stands for this setting: titration, pyruvate + malate and glutamate + malate, OXPHOS.

T1 sequence (P43490 whole entry): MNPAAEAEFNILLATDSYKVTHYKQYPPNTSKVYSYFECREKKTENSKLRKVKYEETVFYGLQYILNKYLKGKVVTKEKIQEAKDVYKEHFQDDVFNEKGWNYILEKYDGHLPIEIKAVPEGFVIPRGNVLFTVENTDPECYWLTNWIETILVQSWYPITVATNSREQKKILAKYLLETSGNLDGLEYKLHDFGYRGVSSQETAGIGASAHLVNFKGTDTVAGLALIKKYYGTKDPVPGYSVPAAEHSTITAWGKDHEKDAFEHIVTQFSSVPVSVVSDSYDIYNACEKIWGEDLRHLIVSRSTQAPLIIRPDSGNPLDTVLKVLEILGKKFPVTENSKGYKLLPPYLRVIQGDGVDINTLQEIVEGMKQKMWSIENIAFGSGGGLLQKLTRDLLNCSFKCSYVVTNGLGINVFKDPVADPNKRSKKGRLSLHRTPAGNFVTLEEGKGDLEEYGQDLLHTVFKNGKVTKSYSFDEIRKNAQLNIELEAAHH

By IC50 is commonly meant the point on the concentration scale where inhibition reaches its midpoint. In the case of `OC1(c2[se][n+]3ccccc3c2Br)CCCCC1.[Cl-]` [Compound 3, 3-bromo-2-(1-hydroxycyclohexyl)-[1,2]selenazolo[2,3-a]pyridinium chloride], the 50% inhibitory concentration (IC50) at 48 h in [1] was 1.85 ± 0.22 µM; in [2], 2.2 ± 0.1 µM; in [3], 2.21 ± 0.02 µM; in data set [5] it was 0.39 ± 0.05 µM; in data set [7], 2.91 ± 0.13 µM. The IC50 with MCF-7 came to 0.5 ± 0.02 µM; in the data set on 4T1 (Mus musculus, 4T1, breast cancer cell line, MTT, 48 h, mean ± S.D., 3 experiments, read-out: Cytotoxicity, IC50, 4T1), 0.044 ± 0.005 µM. Besides, the “decrease in NMN levels” value in the data set with MCF-7 cells [4] stood at 33%. For the same compound, on NAMPT, the “reduction in NAMPT activity” value is “slight decreases”. Besides, in the data set with permeabilized 4T1 cells (1 µM), the OXPHOS coupling efficiency entry is “significant decrease”. For the same compound, the “increase in H2O2/O ratio” value with permeabilized 4T1 cells (setting [8]) was “immediate significant increases”. For the same compound, the “increase in H2O2 production” value in the data set on permeabilized 4T1 cells (setting [8]) is listed as “immediate significant increases”. Also, the “mitochondrial function in the CII-linked OXPHOS state” value in the data set with permeabilized 4T1 cells (titration) was “no significant changes”. Besides, the “H2O2 production with complex I (NADH-linked) substrates” value with permeabilized 4T1 cells (setting [9]) is listed as “increased”. In addition, the “mitochondrial respiration rate with complex I (NADH-linked) substrates” value in the data set with permeabilized 4T1 cells (setting [9]) is “inhibited”. Moreover, the “decrease in NAD+ level” value in the data set on MCF-7 cells [6] worked out at 59%. Also, the “decrease in NAD+/NADH ratio” value in the data set with MCF-7 cells [6] was 38%. Further, the “decrease in NADH level” value in the data set on MCF-7 cells [6] came to 33%. The “selectivity towards tumor cell lines” value in the data set with 4T1 (comparing 4T1 to A7r5) is above 42 fold.
